pIC50: −log10 of the molar value. Like-named read-outs stand apart in the source and are kept apart here. Marks after values point to notes of the source that are not given here.
Assays:
CD1 mice [1] = test: Muscle relaxant activity, rotarod test; format: in vivo; conditions: Mus musculus, ip
CD1 mice [2] = test: Anticonvulsant activity, pentetrazole induced seizures; format: in vivo; conditions: Mus musculus; po.; read-out: Pentetrazol ED50
Method: (§1) The anti-seizure activity of some of the compounds of the present invention was measured using the electroshock test (J. Pharmacol. Exp. Ther. 106:319 (1952)) and the results are shown in Table 3. The spasmolytic activity of the compounds of the present invention was investigated by using e.g., pentetrazole (J. Pharmacol. Exp. Ther. 108:168 (1953)), strychnine (J. Pharmacol. Exp. Ther. 129:75 (1960)), bemegrid, nicotine, bicuculline, 4-aminopyridine and mercapto-propionic acid for inducing the clonic-tonic seizures and lethality. The investigated compounds were administered orally in three doses using 10 male CD1 mice/dose, usually 60 min before the induction of seizures.

CD1 mice [3] = test: Anticonvulsant activity, strychnine induced seizures; format: in vivo; conditions: Mus musculus; po.; read-out: Strychnine ED50
Method: as §1

Lewis rats [4] = test: Autoimmune encephalomyelitis model, neurological (clinical) symptoms; format: in vivo; conditions: for Neurological symptoms (change, %) / change in vivo at 7.5 mg/kg: 7.5 mg/kg ip.; for Neurological symptoms (change, %): day 24 after immunization; for change in vivo at 1.875 mg/kg / change in vivo at 3.75 mg/kg / change in vivo at 7.5 mg/kg: Rattus norvegicus, ip, read-out: Neurological symptoms (change compared to controls, %); for change in vivo at 1.875 mg/kg: 1.875 mg/kg ip.; for change in vivo at 3.75 mg/kg: 3.75 mg/kg ip.
Method: (§2) The compounds were administered intraperitoneally twice a day for 8 days, starting on day 10 after immunization and with an observation period until symptoms were present. 5-15 animals were used in each group. Their weights were 160-180 g (Lewis rats, female) and 180-220 g (Lewis rats, male). The activity of the compounds was determined according to the symptom score values, and compared to those of the control group (see Table 6). Histopathological investigations were carried out on the brain stem, the spinal cord, and the sciatic nerve (Gijbels et al., J. Clin. Invest. 94:2177 (1994)) using 5-10 animal/group.
(§3) Compounds of the invention were further investigated in the autoimmune encephalomyelitis model in rats as outlined in this description before, with the variance that 10 animals were used in each group, of weights 140-160 g (Lewis rats, female).

CD1 mice [5] = test: Anticonvulsant activity, bemegride induced seizures; format: in vivo; conditions: Mus musculus; po.; read-out: Bemegride ED50
Method: as §1

CD1 mice [6] = test: Anticonvulsant activity, 4-aminopyridine induced seizures; format: in vivo; conditions: Mus musculus; po.; read-out: 4-AP ED50
Method: as §1

CD1 mice [7] = test: Anticonvulsant activity, bicuculline induced seizures; format: in vivo; conditions: Mus musculus; po.; read-out: Bicuculline ED50
Method: as §1

CD1 mice [8] = test: Anticonvulsant activity, 3-mercapto-propionic acid induced seizures; format: in vivo; conditions: Mus musculus; po.; read-out: 3-MPA ED50
Method: as §1

AMPA/kainate receptors = test: Inhibition of AMPA induced whole-cell current in acutely isolated cerebellar Purkinje cells (patch clamp); format: cell-based; conditions: 5 μM AMPA, read-out: Inhibition of the ion-currents caused by 5 μM AMPA, IC50
Method: (§4) In the first model the spreading depression caused by glutamate agonists (i.e., AMPA or kainate) was studied, while in the second one the transmembrane ion-current induced by the activation of the AMPA/kainate receptors was measured directly.
The activity of the compounds of the present invention was studied on acutely isolated cerebellar Purkinje cells by measuring the whole-cell current induced by 5 μM AMPA according for example to the method described by Bleakman et al (Neuropharmacology 12:1689 (1996)).

AMPA receptors = test: Inhibition of AMPA induced spreading depression in isolated chicken retina; format: cell-based; conditions: AMPA (5 μM)
Method: as §4
Inhibition of AMPA Induced “Spreading Depression” in Isolated Chicken Retina—
The AMPA antagonistic effect of the compounds of formula (I) or (II) was studied in the in vitro “spreading depression” model (Sheardown Brain Res. 607:189 (1993)). The AMPA antagonists prolong the latency of the development of the “spreading depression” caused by AMPA (5 μM).

CD1 mice [9] = test: Anticonvulsant activity, maximal electroshock seizure (MES) test; format: in vivo; conditions: Mus musculus, po.
Method: as §1

CD1 mice [10] = test: Muscle relaxant activity, inclined screen test; format: in vivo; conditions: Mus musculus, ip
Lewis rats [11] = test: Autoimmune encephalomyelitis model, histological symptoms; format: in vivo; conditions: 7.5 mg/kg ip., day 24 after immunization
Method: as §2, with “5-15” for “The compounds were administered intraperitoneally twice a day for 8 days, starting on day 10 after immunization and with an observation period until symptoms were present. 5-15”
as §3

rats = test: Inhibition of focal ischemia, middle cerebral artery occlusion (MCAO) test; format: in vivo
Method: The focal anti-ischemic activity of the compounds of formula (I) or (II) of the present invention was measured by the “middle cerebral artery occlusion” (MCAO) test (Bartus Stroke 11:2265 (1994) and Sydserff et al, Brit. J. Pharmacol. 114:1631 (1995)). […] After a histological process (TTC staining) 24 h later, the infarcted area was determined by a computer assisted scanner program and was compared to the results obtained in a control group treated with the vehicle.

CD1 mice [12] = test: Anticonvulsant activity, nicotine induced seizures; format: in vivo; conditions: Mus musculus; po.
Method: as §1

CD1 mice [13] = test: Anti-tremor effect, GYKI 20039 induced tremor; format: in vivo; conditions: Mus musculus; po., Litchfield-Wilcoxon, limits in brackets; read-out: ED50, tremor induced by GYKI 20039 10 mg/kg ip.
CD1 mice [14] = test: Anti-tremor effect, oxotremorine induced tremor; format: in vivo; conditions: Mus musculus; po., Litchfield-Wilcoxon, limits in brackets; read-out: ED50, tremor induced by Oxotremorin 1 mg/kg ip.
[15] = 0.5 h, 30′, read-out: MES 30′ ED50
[16] = 1 h, 60 min before induction, read-out: MES (MES 60′) ED50
[17] = 2 mg/kg iv. 6x in every 30 min, first treatment 180 min after occlusion

Row | SMILES | ED50 (CD1 mice [1]) [mg/kg] | ED50 (CD1 mice [2]) [mg/kg] | ED50 (CD1 mice [3]) [mg/kg] | change in vivo at 3.75 mg/kg (Lewis rats [4]; female rats, 0-8 day) [%] | change in vivo at 3.75 mg/kg (Lewis rats [4]; female rats, 0-14 day) [%] | change in vivo at 3.75 mg/kg (Lewis rats [4]; male rats, 0-8 day) [%] | change in vivo at 3.75 mg/kg (Lewis rats [4]; male rats, 0-14 day) [%] | ED50 (CD1 mice [5]) [mg/kg] | ED50 (CD1 mice [6]) [mg/kg] | ED50 (CD1 mice [7]) [mg/kg] | melting point [°C] | ED50 (CD1 mice [8]) [mg/kg] | pIC50 (AMPA/kainate receptors) | pIC50 (AMPA receptors) | ED50 (CD1 mice [9]; [15]) [mg/kg] | ED50 (CD1 mice [9]; [16]) [mg/kg] | ED50 (CD1 mice [10]) [mg/kg] | ED50 (CD1 mice [12]) [mg/kg] | ED50 (CD1 mice [13]) [mg/kg] | ED50 (CD1 mice [14]) [mg/kg] | other results
1 | C[C@@H]1Cc2cc3c(cc2C(c2ccc(N)cc2)=NN1c1nccs1)OCO3 [Example 61, (R)-5-(4-Aminophenyl)-8-methyl-7-(2-thiazolyl)-8,9-dihydro-7H-1,3-dioxolo[4,5-h][2,3]benzodiazepine] | 5.4 | 32.5 | 35.4 | -44 | -48 | -44 | -46 | 34.4 | 17.6 | 31 | 125 to 130 | 11 | 6.31 | 5.30 to 6.00 | 11.5 | 13.1 | 10.7 | 59.3 | – | – | Neurological symptoms (change, %) (Lewis rats [4]; female rats): −53%; Neurological symptoms (change, %) (Lewis rats [4]; male rats): −54%; change in vivo at 1.875 mg/kg (Lewis rats [4]; female rats, 0-8 day): -18%; change in vivo at 1.875 mg/kg (Lewis rats [4]; female rats, 0-14 day): -7%; change in vivo at 1.875 mg/kg (Lewis rats [4]; male rats, 0-8 day): 13%; change in vivo at 1.875 mg/kg (Lewis rats [4]; male rats, 0-14 day): 5%; change in vivo at 7.5 mg/kg (Lewis rats [4]; female rats, 0-8 day): -56%; change in vivo at 7.5 mg/kg (Lewis rats [4]; female rats, 0-14 day): -53%; change in vivo at 7.5 mg/kg (Lewis rats [4]; male rats, 0-8 day): -60%; change in vivo at 7.5 mg/kg (Lewis rats [4]; male rats, 0-14 day): -63%; Activity compared to the reference compound (histopathological and pharmacological investigations) (Lewis rats [4]; result in words): more active than the reference compound GYKI 53773; Histological symptoms (change, %) (Lewis rats [11]; female rats): −5%; Histological symptoms (change, %) (Lewis rats [11]; male rats): −20%; Decrease of the infracted area in % compared to that of the control (rats; 1 mg/kg iv. 6x in every 30 min, first treatment 120 min after occlusion): 63** %; Decrease of the infracted area in % compared to that of the control (rats; 1 mg/kg iv. 6x in every 30 min, first treatment 180 min after occlusion): 16%; Decrease of the infracted area in % compared to that of the control (rats; [17]): 46* %; Neuroprotective activity when administered 3 h after the occlusion (rats; result in words): significant activity
2 | C[C@@H]1Cc2cc3c(cc2C(c2ccc(N)cc2)=NN1C1=NCCS1)OCO3 [Example 69, (R)-5-(4-Aminophenyl)-7-(4,5-dihydro-thiazol-2-yl)-8-methyl-8,9-dihydro-7H-1,3-dioxolo-[4,5-h][2,3]benzodiazepine] | 1.2 | 46.9 | 27.7 | 43 | 58 | 35 | -40 | 33.3 | 16.6 | 18.1 | 148 to 150 | 34.2 | 6.38 | 6.05 | 8.7 | 14.7 | 12.2 | 16.8 | – | – | change in vivo at 7.5 mg/kg (Lewis rats [4]; female rats, 0-8 day): -29%; change in vivo at 7.5 mg/kg (Lewis rats [4]; female rats, 0-14 day): -24%; change in vivo at 7.5 mg/kg (Lewis rats [4]; male rats, 0-8 day): -51%; change in vivo at 7.5 mg/kg (Lewis rats [4]; male rats, 0-14 day): -50%; Decrease of the infracted area in % compared to that of the control (rats; [17]): 28%
3 | CCc1nnc(N2N=C(c3ccc(N)c(C)c3)c3cc4c(cc3C[C@H]2C)OCO4)s1 [Example 165, (R)-5-(4-Amino-3-methylphenyl)-7-(5-ethyl-1,3,4-thiadiazol-2-yl)-8-methyl-8,9-dihydro-7H-1,3-dioxolo-[4,5-h][2,3]benzodiazepine] | 0.91 | 10.1 | 10.2 | – | – | – | – | 10 | 8.6 | 5.79 | 129 to 133 | 8.53 | 7.62 | 6.95 | 2.39 | 3.99 | 2.94 | 18.6 | 5.34 | 4.63 | –
4 | Cc1cc(C2=NN(c3nncs3)[C@H](C)Cc3cc4c(cc32)OCO4)ccc1N [Example 167, (R)-5-(4-Amino-3-methylphenyl)-8-methyl-7-(1,3,4-thiadiazol-2-yl)-8,9-dihydro-7H-1,3-dioxolo-[4,5-h][2,3]benzodiazepine] | 0.8 | 9.66 | 10.5 | – | – | – | – | 8.33 | 10.8 | 12.7 | 143 to 148 | 10.3 | 7.15 | 7.19 | 4.78 | 5.85 | 4.24 | – | 7.73 | 4.81 | –
5 | Cc1nnc(N2N=C(c3ccc(N)c(Cl)c3)c3cc4c(cc3C[C@H]2C)OCO4)s1 [Example 182, (R)-5-(4-Amino-3-chlorophenyl)-8-methyl-7-(5-methyl-1,3,4-thiadiazol-2-yl)-8,9-dihydro-7H-1,3-dioxolo-[4,5-h][2,3]benzodiazepine] | 2.61 | 8.37 | 5.9 | – | – | – | – | 7.94 | 5.44 | 8.44 | 98 to 100 | 7.57 | 7.51 | 7.70 | 5.08 | 6.17 | 5.84 | 24.2 | 3.64 | 2.66 | –
